According to patent US8673890B2, “2,3-dihydro-1H-isoindol-1-imine derivatives useful as thrombin PAR-1 receptor antagonist” (Janssen Pharmaceutica NV, priority 2009, dated 2014):
“And” between values parts separate entries of the source, which are not always exact repeats. Identical values can stand only once.

What was measured:
[1] = target: T1, thrombin receptor (PAR-1) (Homo sapiens, UniProt P25116); experiment: FLIPR-based calcium-flux assay with human smooth muscle cells (Har peptide agonist); format: cell-based; details: HSMC; 30 nM Har (PAR1) peptide agonist; 80-min drug incubation; multiple values = individual measurements
T1 construct: Human aortic smooth muscle cells (HSMC) were purchased from Cascade Biologics; host or cells: human aortic smooth muscle cells (HSMC)
T1 sequence (P25116 22-425): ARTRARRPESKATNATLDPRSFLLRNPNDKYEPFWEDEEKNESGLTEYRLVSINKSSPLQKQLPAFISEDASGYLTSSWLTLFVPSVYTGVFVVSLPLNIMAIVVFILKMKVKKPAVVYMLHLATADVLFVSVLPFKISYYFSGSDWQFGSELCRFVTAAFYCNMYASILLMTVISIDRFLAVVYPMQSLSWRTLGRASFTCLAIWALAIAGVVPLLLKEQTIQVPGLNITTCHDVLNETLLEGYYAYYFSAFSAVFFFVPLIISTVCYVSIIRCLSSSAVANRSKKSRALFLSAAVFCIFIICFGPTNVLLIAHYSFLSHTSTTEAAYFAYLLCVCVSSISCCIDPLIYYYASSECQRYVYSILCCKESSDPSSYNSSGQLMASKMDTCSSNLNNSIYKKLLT
Experimental: Human aortic smooth muscle cells (HSMC) were purchased from Cascade Biologics (Portland, Oreg.) and cultured in M-231 containing smooth muscle cell growth supplement and 1× Antibiotic-Antimycotic.
To determine agonist concentration for compound testing: On the day prior to the assay, 100 μL of cells (2×10^5/mL) were seeded in clear, flat-bottom black-wall, tissue culture treated polystyrene 96-well plates and incubated at 37° C., 5% CO2. On the day of the assay, 50 μL of complete dye loading solution (FLIPR Calcium 3 Kit, Molecular Devices) was added to each well containing 100 μL of culture media. The cells were incubated for 30-45 min at 37° C., in 5% CO2 before initiating the assay on the FLIPR. The agonist effect of PAR1 peptide (S-(p-F-Phe)-Har-L-Har-KY-NH2; Har=homoarginine; referred to herein as “Har” peptide) was tested and the EC50 was determined. The EC60-70 dose was used (30 nM) for compound testing.
Compound testing: On the day prior to the assay, 90 μL of cells (2.2×10^5/mL) were seeded in clear, flat-bottom black-wall, tissue culture treated polystyrene 96-well plates and incubated at 37° C., 5% CO2. On the day of the assay, the test compounds were prepared at 10× in 3% DMSO Hanks buffer and 10 μL was added to each well (final DMSO concentration of 0.3%). The cells were incubated 20 min at 37° C., 5% CO2. Culture medium containing testing compounds was dumped and the cells were washed four times with DPBS containing 0.1% of BSA and re-fed with 80 μL of growth medium. 70 μL of BD (fluorescent) dye was loaded to the cells and incubated 45 min at 37° C. incubator. The plates were equilibrated to room temperature for 15 min. 4× PAR1 peptide (30 nM final concentration) agonist plate and the cell plate were placed in FLIPR's assay chamber. 50 μL agonist was added to the cells and data was recorded for 5 min. Raw fluorescence data was exported for each well and tabulated versus time within an ASCII file. Data was then imported into Excel® and the peak response over basal level was determined. The percent inhibition for each test compound was calculated by the changes of fluorescent density as a % inhibition of the control Har peptide response to obtain an IC50.
Representative compounds of the present invention were tested according to the procedure described in Biological Example 1 above, with results in Table 8 below. In Table 8 below, where multiple values are listed for a particular compound, said numbers represent individual measurements (tests) for said compound.

[2] = test system: platelets in platelet-rich plasma; experiment: Har peptide-induced platelet aggregation in platelet-rich plasma; format: cell-based, human; details: multiple values = individual measurements
Experimental: (§1) The procedure for this assay is similar to that described in Biological Example 2, above. Briefly, platelet aggregation studies were performed according to the method of Bednar et al. (Bednar, B., Condra, C., Gould, R. J., and Connolly, T. M., Thromb. Res., 77:453-463 (1995)). Platelet-rich plasma (PRP) concentrates prepared from healthy volunteers who were aspirin free for at least 7 days by venipuncture using EDTA as anticoagulant was purchased from Biological Specialties, Inc. (Colmar, Pa.). PPP (platelet-poor-plasma) was obtained by centrifugation of PRP at Max (3,000 rpms) for 15 min at room temperature. PRP was diluted to yield platelet count of 300×10^3 platelets/μL with PPP. For thrombin induced platelet aggregation: 118 μL of 500 mM GPRP-NH2 was added to 12 mL of 300×10^3 platelets before using (to clean the fibrinogen in the plasma.) GPRP was added just before the experiment. 15 μL of test compound solutions were added to 120 μL of platelets 5 min prior the agonist additions. Platelet aggregation was initiated by the addition of agonist shown to achieve 60-70% aggregation. Antagonist potency was estimated as a % inhibition of the control Har peptide or thrombin response to obtain an IC50.
(§2) Where multiple values are listed for a particular compound, said numbers represent individual measurements (tests) for said compound.

[3] = test system: platelets in platelet-rich plasma; experiment: Thrombin-induced platelet aggregation in platelet-rich plasma; format: cell-based, human; details: for inhibition at 10 µM: 10 μM compound; for IC50: multiple values = individual measurements
Experimental: as §1, §2

Structure (SMILES) | IC50 [1] | IC50 ([2]; Homo sapiens, Platelet) | IC50 [2] | inhibition at 10 µM ([3]; Homo sapiens) | IC50 ([3]; Homo sapiens, Platelet) | IC50 [3]
CC(C)(C)c1cc(C(=O)CN2Cc3cc4c(cc3C2=N)OCCCO4)cc(C(C)(C)C)c1O [Compound 4, 1-(3,5-di-tert-butyl-4-hydroxyphenyl)-2-(7-imino-3,4-dihydro-[1,4]dioxepino[2,3-f]isoindol-8(2H,7H,9H)-yl)ethanone] | 0.13 µM and 0.068 µM | – | – | – | – | –
CC(C)(C)c1cc(C(=O)CN2Cc3cc4c(cc3C2=N)OCCCCO4)cc(C(C)(C)C)c1O [Compound 5] | 0.032 µM | – | – | – | – | –
CC1(C)COc2cc3c(cc2OC1)C(=N)N(CC(=O)c1cc(C(C)(C)C)c(O)c(C(C)(C)C)c1)C3 [Compound 9] | 0.16 µM | – | – | – | – | –
CC(C)(C)c1cc(C(=O)CN2Cc3cc4c(cc3C2=N)OCC(CCN2CCOCC2)CO4)cc(C(C)(C)C)c1O (centres unmarked) [Compound 12] | 0.551 µM | – | – | – | – | –
CC(C)(C)c1cc(C(=O)CN2Cc3cc4c(cc3C2=N)OCC(CCN2CCCC2)CO4)cc(C(C)(C)C)c1O (centres unmarked) [Compound 13] | > 3 µM | – | – | – | – | –
CC(C)(C)c1cc(C(=O)CN2Cc3cc4c(cc3C2=N)OCC(CC=O)CO4)cc(C(C)(C)C)c1O (centres unmarked) [Compound 14, 2-(8-(2-(3,5-di-tert-butyl-4-hydroxyphenyl)-2-oxoethyl)-7-imino-2,3,4,7,8,9-hexahydro-[1,4]dioxepino[2,3-f]isoindol-3-yl)acetaldehyde] | 0.78 µM | – | – | – | – | –
CN1CCN(CCC2COc3cc4c(cc3OC2)C(=N)N(CC(=O)c2cc(C(C)(C)C)c(O)c(C(C)(C)C)c2)C4)CC1 (centres unmarked) [Compound 15] | > 3 µM | – | – | – | – | –
CN(C)CCC1COc2cc3c(cc2OC1)C(=N)N(CC(=O)c1cc(C(C)(C)C)c(O)c(C(C)(C)C)c1)C3 (centres unmarked) [Compound 16, 1-(3,5-di-tert-butyl-4-hydroxyphenyl)-2-(3-(2-(dimethylamino)ethyl)-7-imino-3,4-dihydro-[1,4]dioxepino[2,3-f]isoindol-8(2H,7H,9H)-yl)ethanone] | > 1 µM | – | – | – | – | –
CNCCC1COc2cc3c(cc2OC1)C(=N)N(CC(=O)c1cc(C(C)(C)C)c(O)c(C(C)(C)C)c1)C3 (centres unmarked) [Compound 37] | > 3 µM | – | – | – | – | –
COc1c(N2CCOCC2)cc(C(=O)CN2Cc3cc4c(cc3C2=N)OCCN(C(=O)OC(C)(C)C)CCO4)cc1C(C)(C)C [Compound 41, tert-butyl 10-(2-(3-tert-butyl-4-methoxy-5-morpholinophenyl)-2-oxoethyl)-9-imino-2,3,5,6,10,11-hexahydro-[1,4,7]dioxazonino[2,3-f]isoindole-4(9H)-carboxylate] | 0.54 µM and > 1 µM and 1.2 µM | – | – | – | – | –
COc1c(N2CCOCC2)cc(C(=O)CN2Cc3cc4c(cc3C2=N)OCCNCCO4)cc1C(C)(C)C [Compound 42, 1-(3-tert-butyl-4-methoxy-5-morpholinophenyl)-2-(9-imino-3,4,5,6-tetrahydro-[1,4,7]dioxazonino[2,3-f]isoindol-10(2H,9H,11H)-yl)ethanone] | 0.66 µM and > 1 µM and 1.3 µM | – | – | – | – | –
COc1c(N2CCOCC2)cc(C(=O)CN2Cc3cc4c(cc3C2=N)OCC(CCN2CCOCC2)CO4)cc1C(C)(C)C (centres unmarked) [Compound 43] | 0.45 µM and 0.68 µM | – | – | – | – | –
COc1c(N2CCOCC2)cc(C(=O)CN2Cc3cc4c(cc3C2=N)OCC(CC2NCCS2)CO4)cc1C(C)(C)C (centres unmarked) [Compound 44] | 0.1 µM and 0.12 µM | – | – | – | – | –
COc1c(N2CCOCC2)cc(C(=O)CN2Cc3cc4c(cc3C2=N)OCC(CCN2CCSC2)CO4)cc1C(C)(C)C (centres unmarked) [Compound 45] | 0.15 µM and 0.18 µM | – | – | – | – | –
COc1c(N2CCOCC2)cc(C(=O)CN2Cc3cc4c(cc3C2=N)OCc2ccccc2CO4)cc1C(C)(C)C [Compound 46] | 0.094 µM and 0.1 µM | 1820 nM | 1040 nM | 34% | 4710 nM | –
CC(C)(C)c1cc(C(=O)CN2Cc3cc4c(cc3C2=N)OCc2ccccc2CO4)cc(C(C)(C)C)c1O [Compound 47] | 0.04 µM and 0.088 µM | 2270 nM | 2250 nM | – | 2540 nM | 2750 nM
CC(C)(C)c1cc(C(=O)CN2Cc3cc4c(cc3C2=N)OCc2cccnc2CO4)cc(C(C)(C)C)c1O [Compound 48] | 0.044 µM and 0.053 µM | – | – | – | – | –
COc1c(Br)cc(C(=O)CN2Cc3cc4c(cc3C2=N)OCc2ncccc2CO4)cc1C(C)(C)C [Compound 54] | 1.1 µM and > 3 µM and 0.75 µM | – | – | – | – | –
COC(=O)c1ccc2c(c1)COc1cc3c(cc1OC2)CN(CC(=O)c1cc(C(C)(C)C)c(O)c(C(C)(C)C)c1)C3=N [Compound 55] | – | – | 2430 nM and > 10000 nM and 11100 nM | – | > 10000 nM | > 10000 nM
COc1c(N2CCN(C)CC2)cc(C(=O)CN2Cc3cc4c(cc3C2=N)OCc2cccnc2CO4)cc1C(C)(C)C [Compound 71] | 0.064 µM and 0.044 µM | 290 nM | 480 nM | – | 380 nM | –
CC(C)(C)c1cc(C(=O)CN2Cc3cc4c(cc3C2=N)OCc2cc(C(=O)O)ccc2CO4)cc(C(C)(C)C)c1O [Compound 72] | 0.25 µM and 0.14 µM | > 10000 nM | > 10000 nM | – | > 10000 nM | –
CC(C)(C)c1cc(C(=O)CN2Cc3cc4c(cc3C2=N)OCc2nccnc2CO4)cc(C(C)(C)C)c1O [Compound 77] | 0.046 µM and 0.074 µM | 630 nM | 490 nM and 830 nM | – | 1230 nM | 1920 nM and 1550 nM
COC(=O)c1ccc2c(c1)COc1cc3c(cc1OC2)C(=N)N(CC(=O)c1cc(C(C)(C)C)c(O)c(C(C)(C)C)c1)C3 [Compound 80] | 0.073 µM and 0.16 µM | > 10000 nM | 13100 nM | – | > 10000 nM | > 10000 nM
CC(C)(C)c1cc(C(=O)CN2Cc3cc4c(cc3C2=N)OCc2ccc(C(=O)O)cc2CO4)cc(C(C)(C)C)c1O [Compound 81] | 0.054 µM and 0.082 µM and 0.014 µM | > 10000 nM | > 10000 nM | – | > 10000 nM | > 10000 nM
CC(C)(C)c1cc(C(=O)CN2Cc3cc4c(cc3C2=N)OCc2ncccc2CO4)ccc1O [Compound 82] | 0.11 µM and 0.17 µM | 640 nM | 930 nM | 21% | 2570 nM | –
COC(=O)c1cc2c(cc1C(=O)OC)COc1cc3c(cc1OC2)CN(CC(=O)c1cc(C(C)(C)C)c(O)c(C(C)(C)C)c1)C3=N [Compound 102] | 0.35 µM | – | – | – | – | –
COC(=O)c1cc2c(cc1C(=O)OC)COc1cc3c(cc1OC2)CN(CC(=O)c1cc(N2CCOCC2)c(OC)c(C(C)(C)C)c1)C3=N [Compound 103] | 1.1 µM | – | – | – | – | –
